The subject of data set [1] is B16-F10. Nature of the data set: Induction of melanin synthesis in mouse B16F10 cells after 48 hrs by fluorescence microscopy relative to control. It counts as functional. Further details: concentration or dose not given beside the values.
The subject of data set [2] is B16-F10. Nature of the data set: Induction of melanogenesis in mouse B16F10 cells at 0.01 to 10 uM after 48 hrs by fluorescence microscopy relative to control. The data set is classed as functional, cell-based.
A short description of data set [3]: Cellular uptake in mouse B16F10 cells at 0.1 uM after 4 hrs by confocal imaging analysis in presence of 0.1 to 1 uM 3',4',7-trihydroxyflavaonone. The data set is classed as ADME, cell-based. As to conditions: b16-f10, 4 h.
Data set [4] can be described thus: Drug uptake in mouse B16F10 cell endoplasmic reticulum at 0.1 uM after 4 hrs by ER-tracker Red staining-based confocal imaging analysis. The data set is classed as ADME. The conditions noted are these: b16-f10, 4 h.
A short description of data set [5]: Drug uptake in mouse B16F10 cell nucleus at 0.1 uM after 4 hrs by DAPI staining-based confocal imaging analysis. The data set is classed as ADME. As to conditions: b16-f10, 4 h.
For data set [6], the system named is Mus musculus. Nature of the data set: Induction of melanogenesis in C57BL/6 depigmentation mouse assessed as increase in TRP-1 protein expression at 1.6 to 4.8 mg/kg, ip for 2 weeks measured on day 12 by H&E staining-based histomorphology. It counts as functional, organism-based.
Data set [7] deals with Mus musculus. Nature of the data set: Induction of melanogenesis in C57BL/6 depigmentation mouse assessed as increase in MITF protein expression at 1.6 to 4.8 mg/kg, ip for 2 weeks measured on day 12 by H&E staining-based histomorphology. It counts as functional, organism-based.
In data set [8] the test system is Mus musculus. Nature of the data set: Induction of melanogenesis in C57BL/6 depigmentation mouse assessed as increase in tyrosinase protein expression at 1.6 to 4.8 mg/kg, ip for 2 weeks measured on day 12 by H&E staining-based histomorphology. It counts as functional, organism-based.
For data set [9], the system named is Mus musculus. Nature of the data set: Induction of melanogenesis in C57BL/6 depigmentation mouse assessed as increase in TRP-2 protein expression at 1.6 to 4.8 mg/kg, ip for 2 weeks measured on day 12 by H&E staining-based histomorphology. It counts as functional, organism-based.
Data set [10] deals with Mus musculus. Nature of the data set: Induction of melanogenesis in C57BL/6 depigmentation mouse assessed as increase in melanin content of hair follicle on depigmented skin at 1.6 to 4.8 mg/kg, ip for 2 weeks by H&E stainig-based histomorphology. The data set is classed as functional, organism-based.

Each structure is given as a SMILES string. Activity calls are given as the source filed them. No cut-off for these calls is given here.

On to `COc1ccc2c(c1)OC(c1ccc(OC(C)=O)c(OC(C)=O)c1)CC2=O` (centres undefined), for which the Activity in the data set on B16-F10 [1] stood at 132.3%.
The same measure, in the same setting: as for `C=CCOc1ccc(C2CC(=O)c3ccc(OC)cc3O2)cc1OCC=C` (centres undefined), the figure is 91.19%; as for `COc1ccc2c(c1)OC(c1ccc(OC(=O)c3ccccc3)c(OC(=O)c3ccccc3)c1)CC2=O` (centres undefined), 121.43%.
Same read-out and setting: the same measure for `CCCCCCCCCCCC(=O)Oc1ccc(C2CC(=O)c3ccc(OC)cc3O2)cc1O` (centres undefined): 74.13%.
On the same count and under the same terms, the same measure for `COc1ccc2c(c1)OC(c1ccc(O)c(O)c1)CC2=O` (centres undefined): 110.31%.
As for `CC1=CC(C)=[N+]2C1=C(CCC(=O)N/N=C1\CC(c3ccc(O)c(O)c3)Oc3cc(O)ccc31)c1c(C)cc(C)n1[B-]2(F)F` (centres undefined), the outcome with B16-F10 [2] was Active. In addition, the Drug uptake result in data set [3] is given as “Not Active”; in data set [4], “Active”; in [5], “Active”.
In the data set with B16-F10 [1], `COc1ccc2c(c1)OC(c1ccc(OC(=O)c3ccc(Cl)cc3)c(OC(=O)c3ccc(Cl)cc3)c1)CC2=O` (centres undefined) gave an Activity of 121.98%.
Regarding `COc1ccc2c(c1)OC(c1ccc(O)c(O)c1)C/C2=N/O` (centres undefined), the result in the data set on Mus musculus [6], with Mus musculus [7], in the data set on Mus musculus [8], in the data set on Mus musculus [9] and with Mus musculus [10] was Active. Further, the Activity in the data set on B16-F10 [1] is reported as 134.71%.
Turning to `CCCCCCCCCCCCCC(=O)Oc1ccc(C2CC(=O)c3ccc(OC)cc3O2)cc1O` (centres undefined), the Activity with B16-F10 [1] came to 44.63%.
The same measure, in the same setting: the same measure for `CCC(=O)Oc1ccc(C2CC(=O)c3ccc(OC)cc3O2)cc1OC(=O)CC` (centres undefined): 133.65%.
In the data set on B16-F10 [1], `COc1ccc2c(c1)OC(c1ccc(OC(=O)c3ccc(F)cc3)c(OC(=O)c3ccc(F)cc3)c1)CC2=O` (centres undefined) yielded an Activity of 111.79%.
The same measure, in the same setting: as for `CCCCCCCCCCCC(=O)Oc1ccc(C2CC(=O)c3ccc(OC)cc3O2)cc1OC(=O)CCCCCCCCCCC` (centres undefined), the figure is 89.54%.
In the data set with B16-F10 [1], `COc1ccc2c(c1)OC(c1ccc(OC(=O)c3ccco3)c(OC(=O)c3ccco3)c1)CC2=O` (centres undefined) came in with an Activity of 96.11%.
The same measure, in the same setting: the same measure for `COc1ccc2c(c1)OC(c1ccc(OC(=O)c3ccccc3Cl)c(OC(=O)c3ccccc3Cl)c1)CC2=O` (centres undefined): 119.46%; for `COc1ccc2c(c1)OC(c1ccc(OS(=O)(=O)c3ccc(C)cc3)c(OS(=O)(=O)c3ccc(C)cc3)c1)CC2=O` (centres undefined): 100.52%.
Turning to `COc1ccc2c(c1)OC(c1ccc(OC(=O)c3ccc(C)cc3)c(OC(=O)c3ccc(C)cc3)c1)CC2=O` (centres undefined), the Activity with B16-F10 [1] is on record as 113.49%.

These data come from ChEMBL document CHEMBL3400111, “Synthesis and melanogenesis evaluation of 3',4',7-trihydroxyflavanone derivatives and characterization of flavanone-BODIPY” (Bioorg Med Chem Lett, 2015).
